Peptide text beside a SMILES is read from it. * marks the point of attachment. Palmitoyl = CCCCCCCCCCCCCCCC(=O)*
Key:
[1] = tested on: Gram-negative bacteria E. coli; experiment: Microbroth dilution MIC, range over strains; format: cell-based; details: against the E. coli strains of the panel
Method: (§1) The synthesized SPRLPs were evaluated for their antibacterial potency against a panel of Gram-positive and Gram-negative bacteria (Tables 2 & 3). Some of the included pathogens were collected from patients visiting or admitted to participating Canadian hospitals through the CAN-ICU (27) and CANWARD (28) national surveillance studies. Antibacterial activity was assessed using minimum inhibitory concentration (MIC) against various clinical pathogens.
(§2) Microbroth dilution susceptibility test following the Clinical and Laboratory Standards Institute (CLSI) guidelines (32) was performed to assess the in vitro antibacterial activity of SPRLPs. Overnight grown bacterial cultures were diluted in saline to achieve a 0.5 McFarland turbidity, followed by 1:50 dilution in Mueller-Hinton broth (MHB) for inoculation to a final concentration of 5×10^5 colony forming units/mL. The assay was done on a 96-well plate to which the agents of interest were 2-fold serially diluted in MHB and incubated with equal volumes of inoculum at 37° C. for 18 hours. MIC was determined as the lowest concentration to inhibit visible bacterial growth in form of turbidity, which was confirmed using EMax Plus microplate reader (Molecular Devices, USA) at a wavelength of 590 nm. The well containing MHB broth with or without bacterial cells was used as positive or negative control, respectively.

pig erythrocytes = format: cell-based
Outline: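 Washed pig erythrocytes in PBS were mixed with 2-fold serial dilutions of peptide and incubated for 1 h at 37° C. Released hemoglobin in the supernatant was read at 570 nm, with PBS and 0.1% Triton X-100 as controls. MHC was the minimum concentration giving 5% hemolysis.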

Gram-positive bacteria = experiment: Microbroth dilution MIC, range over panel; format: cell-based; details: against Gram-positive bacteria of the panel
Method: as §1, §2

[2] = tested on: methicillin-susceptible Staphylococcus epidermidis CANWARD-2008 81388; format: cell-based; details: methicillin-susceptible CANWARD-2008 81388
Outline: (§3)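 CLSI broth microdilution with 2-fold serial dilutions in Mueller-Hinton broth, inoculum 5×10^5 CFU/mL, incubated 18 hours at 37° C. MIC taken as lowest concentration with no visible turbidity, confirmed by absorbance at 590 nm.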

P. aeruginosa ATCC 27853 = format: cell-based
Outline: as §3

[3] = tested on: A. baumannii CAN-ICU 63169; format: cell-based
Outline: as §3

[4] = tested on: methicillin-resistant S. epidermidis CAN-ICU 61589 (ceftazidime-resistant); format: cell-based; details: methicillin-resistant CAN-ICU 61589 (ceftazidime-resistant)
Outline: as §3

[5] = tested on: E. coli CANWARD-2011 97615 (gentamicin-, tobramycin-, ciprofloxacin-resistant) aac(3′)iia; format: cell-based
Outline: as §3

[6] = tested on: methicillin-resistant S. aureus ATCC 33592; format: cell-based
Outline: as §3

K. pneumoniae ATCC 13883 = format: cell-based
Outline: as §3

[7] = tested on: E. coli CAN-ICU 63074 (amikacin-intermediate resistant); format: cell-based
Outline: as §3

E. coli ATCC 25922 = format: cell-based
Outline: as §3

[8] = tested on: P. aeruginosa CANWARD-2011 96846 (gentamicin-, tobramycin-resistant); format: cell-based
Outline: as §3

E. faecium ATCC 27270 = format: cell-based
Outline: as §3

S. aureus ATCC 29213 = format: cell-based
Outline: as §3

[9] = tested on: S. maltophilia CAN-ICU 62584; format: cell-based
Outline: as §3

E. faecalis ATCC 29212 = format: cell-based
Outline: as §3

[10] = tested on: E. coli CAN-ICU 61714 (gentamicin-resistant); format: cell-based
Outline: as §3

[11] = tested on: P. aeruginosa CAN-ICU 62308 (gentamicin-resistant); format: cell-based
Outline: as §3

[12] = tested on: P. aeruginosa wild-type PAO1; format: cell-based
Outline: as §3

[13] = tested on: wild-type and MDR/XDR P. aeruginosa clinical isolates; details: checkerboard assay; P. aeruginosa
Method: We evaluated the activity of SPRLPs in combination with fifteen clinically-used antibiotics against P. aeruginosa. Antibiotics tested included fluoroquinolones (moxifloxacin, ciprofloxacin and levofloxacin), aminoglycosides (gentamicin, tobramycin and amikacin), cephalosporins (ceftazidime and cefotaxime), carbapenems (meropenem and doripenem), aztreonam, rifampicin, minocycline, colistin and fosfomycin. The SPRLPs were screened initially at a fixed concentration of 8 μg/mL (5 μM) in combination with antibiotics against wild-type P. aeruginosa PAO1. We assessed potentiation by at least a four-fold absolute MIC reduction of the antibiotic, after which synergism was further validated by a conventional checkerboard assay. A fractional inhibitory concentration (FIC) index of ≤0.5, 0.5<x≤4 or >4 was interpreted as synergistic, indifferent or antagonistic interaction, respectively (31). FIC index was obtained by adding the FIC values of the antibiotic and the SPRLP adjuvant. FIC of antibiotics was calculated by dividing the MIC of the antibiotic in the presence of the adjuvant by the MIC of the antibiotic alone. Similarly, the FIC of adjuvant was calculated via dividing the MIC of the adjuvant in the presence of the antibiotic by the MIC of the adjuvant alone.
Isolates used in this study were either obtained from the American Type Culture Collection (ATCC), the Canadian National Intensive Care Unit (CAN-ICU) surveillance study (27) or the Canadian Ward Surveillance (CANWARD) study (28). Clinical isolates belonging to the CAN-ICU and CANWARD studies were recovered from patients suffering a presumed infectious disease entering or admitted in a participating medical center across Canada during the time of study. MDR P. aeruginosa strains in this study refer to those that are resistant to aminoglycosides, fluoroquinolones, cephalosporins, and carbapenems while XDR strains are those that are resistant to aminoglycosides, fluoroquinolones, cephalosporins, carbapenems, aztreonam and penicillin+β-lactamase inhibitor combination (39, 40).
as §2
The assay was performed on a 96-well plate, to which the agents of interest was 2-fold serially diluted in working MHB. Prior to serial dilution, SPRLP was added to the working MHB media so that a fixed final concentration of 8 μg/mL (5 μM) SPRLP per well was achieved. To ensure that the assay was working, the MIC determination test of the studied antibiotic (without SPRLP) was included on the same plate. Similar MIC results between the assay comparator and an independent MIC determination test (on a different plate) ensured validity of the synergy test. Overnight grown bacterial cultures were diluted in saline to 0.5 McFarland turbidity, followed by 1:50 dilution in MHB (without SPRLP) and inoculation into each well to a final concentration of approximately 5×10^5 colony forming units/mL. Wells containing only MHB (without SPRLP) with or without bacterial cells were used as positive or negative control, respectively.

[14] = tested on: human liver carcinoma HepG2 cells; format: cell-based; details: read-out: IC50, inhibition of proliferation
Method: The CyQuant Direct cell proliferation assay kit (ThermoFisher, Canada) was used to assess the effect of C12-PRP on cell proliferation according to the manufacturer's protocol. Briefly, human embryonic kidney cells (HEK-293) and HepG2 cells were grown in Dulbecco's Modified Eagle's Medium supplemented with 10% fetal bovine serum. The cells were dispersed into 96-well plates (8000 cells/well in 100 μl ). Wells with media but no cells were used as blanks. After 24 hours, varying concentrations of C12-PRP, colistin and Adriamycin® were added to the wells containing cells but also the blanks. After incubation of the cells with the compounds for 48 hours, the CyQuant Direct detection reagent was added to the wells. Plates were incubated at 37° C. for 1 hour and the fluorescence (Excitation 480nm/Emission 535 nm) was read using a SpectraMax M2e (Molecular Devices, USA). As a positive control, CyQuant Direct detection reagent was added to a plate with untreated cells, incubated for 1 hour followed by fluorescence reading. The number of cells in each well was determined by detaching the cells by trypsin followed by counting on a CoulterZM counter to ensure an approximate equal number of cells per well.

| Molecule | MHC (minimum concentration that resulted in 5% red blood cell hemolysis) (pig erythrocytes) | MIC range (Gram-positive bacteria) | MIC [2] | MIC (P. aeruginosa ATCC 27853) | MIC [3] | MIC [4] | MIC [5] | MIC [6] | MIC (K. pneumoniae ATCC 13883) | MIC [7] | MIC (E. coli ATCC 25922) | MIC [8] | MIC (E. faecium ATCC 27270) | MIC (S. aureus ATCC 29213) | MIC [9] | MIC (E. faecalis ATCC 29212) | MIC [10] | MIC [11] | MIC [12] | also measured |
| --- | --- | --- | --- | --- | --- | --- | --- | --- | --- | --- | --- | --- | --- | --- | --- | --- | --- | --- | --- | --- |
| CCCCCCCCCCCCCCCC(=O)N1CCC[C@H]1C(=O)N[C@@H](CCCNC(=N)N)C(=O)N1CCC[C@H]1C(=O)N[C@@H](CCCNC(=N)N)C(=O)N1CCC[C@H]1C(=O)N[C@@H](CCCNC(=N)N)C(=O)N1CCC[C@H]1C(N)=O [Compound C16-PRP, CH3(CH2)14CO-PRPRPRP-NH2] (Palmitoyl-PRPRPRP-NH2) | 16 µg/mL | 4 to 16 µg/mL | 4 µg/mL | 32 µg/mL | 16 µg/mL | 8 µg/mL | 8 µg/mL | 16 µg/mL | 64 µg/mL | 8 µg/mL | 16 µg/mL | 64 µg/mL | 8 µg/mL | 8 µg/mL | 64 µg/mL | 16 µg/mL | 8 µg/mL | 32 µg/mL | 32 µg/mL | MIC range [1]: 8 to 16 µg/mL; interaction with minocycline (in words) [13]: indifferent interaction; interaction with rifampicin (in words) [13]: indifferent interaction |
| CCCCCCCCCCCCCCCC(=O)N1CCC[C@H]1C(=O)N[C@@H](CCCNC(=N)N)C(=O)N1CCC[C@H]1C(=O)N[C@@H](Cc1c[nH]c2ccccc12)C(=O)N1CCC[C@H]1C(=O)N[C@@H](CCCNC(=N)N)C(=O)N1CCC[C@H]1C(N)=O [Compound C16-PWP, CH3(CH2)14CO-PRPWPRP-NH2] (Palmitoyl-PRPWPRP-NH2) | 16 µg/mL | 4 to 8 µg/mL | 4 µg/mL | 64 µg/mL | 64 µg/mL | 8 µg/mL | 64 µg/mL | 8 µg/mL | 64 µg/mL | 16 µg/mL | 32 µg/mL | 64 µg/mL | 8 µg/mL | 8 µg/mL | 64 µg/mL | 8 µg/mL | 32 µg/mL | 64 µg/mL | 32 µg/mL |  |
| colistin |  |  |  |  |  |  |  |  |  |  |  |  |  |  |  |  |  |  |  | IC50 [14]: 1.5 µM |

— US20200407398A1, “Short Proline-Rich Lipopeptide Potentiates Minocycline and Rifampicin Against Multidrug-and Extensively Drug-Resistant Pseudomonas Aeruginosa” (priority 2018, published 2020)
